Measured values: patent publication US6277835A, “Method of tumor treatment” (priority 2000, dated 2001)

How the values were obtained:
[1] = tested on: peripheral white cell counts (bone marrow); test: Peripheral white cell counts; conditions: day 3; tirapazamine […]; cisplatin 10, 14 and 18 mg/kg
Description: Blood samples were taken from tail veins or by cardiac puncture. No anticoagulants were used. Peripheral white cell counts for individual mice were determined from 20 μl whole blood diluted in 0.280 ml 3% acetic acid. For serum BUN assays, blood from two mice was pooled, coagulated, vortexed, and centrifuged at 830 g for 15 minutes. After the serum was aspirated, BUN values were determined by a commercial clinical veterinary laboratory. Survival to 30 days was also recorded in another experiment.

[2] = tested on: kidney (blood urea nitrogen); test: Serum BUN assay; format: in vivo, C3H mice; conditions: day six
Excerpt: No anticoagulants were used.

RIF-1 cells [3] = test: In vitro RIF-1 clonogenic cell survival under hypoxic conditions; format: cell-based; conditions: Mus musculus, RIF-1, 1 h, read-out: cell survival
Description: (§1) For the studies on cells in vitro, RIF-1 cells were seeded into 60 mm glass petri dishes in Waymouth's medium supplemented with 15% fetal bovine serum at a concentration of 2×10^4 cells per dish. The experiments were performed 4 to 5 days later when there were approximately 10^6 cell per dish at the time of treatment. The growth medium was then replaced with 2 ml of medium without serum containing tirapazamine at a concentration of either 2 or 4 μg/ml. […] To achieve hypoxia, the dishes were loaded into specially fabricated, prewarmed aluminum gassing chambers which were placed in a shaking table and connected to a gassing manifold comprising a vacuum outlet line and inlet lines for air or nitrogen (+5% CO^2). […] After gassing, the chambers were sealed and incubated for one hour at 37 C.

RIF-1 cells [4] = tested on: RIF-1 cells
Description: as §1

[5] = tested on: FSaIIC Murine Fibrosarcoma; conditions: cited from earlier work

Row | Compound | leukopenia [1] | BUN level ([2]; 10 mg/kg cisplatin alone, similar to untreated) | BUN level ([2]; 14 mg/kg cisplatin alone, similar to untreated) | BUN level ([2]; 18 mg/kg cisplatin alone) | viability at 2 µg/mL (RIF-1 cells [3]) | viability at 4 µg/mL (RIF-1 cells [3]) | cytotoxicity under aerobic conditions (RIF-1 cells [4]) | effect on tumor cells with carmustine ([5]; SR 4233 just before single-dose carmustine) | effect on tumor cells with cyclophosphamide ([5]; SR 4233 just before single-dose cyclophosphamide) | effect on tumor cells with melphalan ([5]; SR 4233 just before single-dose melphalan) | effect with cisplatin ([5]; SR 4233 just prior to single-dose cisplatin)
1 | N.N.[Cl][Pt][Cl] [cisplatin] | mild leukopenia | approximately 30 mg/dl | approximately 30 mg/dl | about 80 mg/dl |  |  |  |  |  |  | 
2 | Nc1n[n+]([O-])c2ccccc2[n+]1[O-] [tirapazamine, 3-amino-1,2,4-benzotriazine 1,4-dioxide] |  |  |  |  | 30% | 0.9% | no cytotoxicity | marked dose enhancement leading to synergistic cytotoxic effects on tumor cells | marked dose enhancement leading to synergistic cytotoxic effects on tumor cells | marked dose enhancement leading to synergistic cytotoxic effects on tumor cells | additive effect, except at the highest dose level of cisplatin
